Results on one molecule are retold here after article PMC11438102, “Modulation of cannabinoid receptor 2 alters neuroinflammation and reduces formation of alpha-synuclein aggregates in a rat model of nigral synucleinopathy” (Journal of Neuroinflammation, 2024).

The experiment concerns RAW264.7 macrophages. As to the kind of experiment: Phagocytosis assay with pHrodo green E. coli bioparticles. It is filed as cell-based. To be noted: additional incubation, regardless of LPS dose. The procedure:
The RAW264.7 macrophage cells (ATCC Cat# TIB-71, RRID: CVCL_0493) were grown in sterile media which consisted of DMEM high glucose, 10% FBS, 2mM L-glutamine, 1x Pen-strep and 1x sodium pyruvate in a humidified 5% CO2 incubator at 37°C. RAW264.7 were maintained in […] tissue culture flasks and plated at a density of 1 × 10^4 cells in triplicate in 96-well plates for assays. Cells were stimulated with either lipopolysaccharide (LPS O111:B4; Sigma Cat#L2630) at 100ng/mL or 1000ng/mL (750EU/mL or 7500 EU/mL, respectively). One hour prior to this stimulation the cells were pre-treated with the CB2 inverse agonist SMM-189 at 3μM or 7 μm or its vehicle. Specifically for cell culture experiments, SMM-189 was formulated with 40% ethanol (v/v), 20% tween-20 (v/v) and 40% saline (v/v). A phagocytosis assay was conducted 24 h after LPS.
The phagocytosis assay was performed using pHrodo green E. coli bioparticles (Invitrogen Cat# P35366) according to the manufacturer’s instructions. Five images per well were then collected every 30 min for 24 h on an EVOS M7000 microscope (Invitrogen, ThermoFisher Scientific). The cells were maintained for this duration using an on-stage incubator kept at 37°C and 5% CO2. Analysis of the collected images was performed using EVOS Celleste software (version 5.0), which counted the cells and then measured the integrated optical density of fluorescence within each well over the 24-hour time course. Analysis was conducted on the average integrated optical density across triplicate wells. Results were consistent across duplicate experimental replicates.

For `C=C1[C@@H](C)[C@H]2[C@H](Cc3ccccc3)NC(=O)[C@]23[C@H](OC(C)=O)/C=C/[C@@](C)(O)C(=O)[C@@H](C)C/C=C/[C@H]3[C@@H]1O` [cytochalasin D, reference compound], the “GFP expression (phagocytosis control)” value was “significantly restricted”.
